# Data published in US9278086B2, “Combination therapy and uses thereof for treatment and prevention of parasitic infection and disease” (The Royal Institution for the Advancement of …, priority 2010, dated 2016).
# Marks after values point to notes of the source that are not given here.
# How the values were obtained:
# [1] = humans, oral dose 1475 mg Cys bitartrate (500 mg cysteamine base), cited from earlier work
# Plasmodium berghei ANKA = Plasmodium berghei ANKA infection (cerebral malaria model) in C57BL/6J mice, parasitemia and survival; format: in vivo
# Description: FIGS. 8A and 8B show the results of two independent experiments on the effect of cysteamine and artesunate combinations on the progression of Plasmodium berghei ANKA infection (parasitemia). Groups of 5 adult 18-20 g C57BL/6J males and females were infected intravenously with 1×10^6 erythrocytes parasitized with P. berghei ANKA at time “0”. Two hours later, mice were injected i.p with either Artemisinin alone or with Artemisinin/Cysteamine combinations (at the indicated concentrations in mg/kg body weight). In the case of the latter, Artemisinin was injected first in one quadrant, and cysteamine was injected second, 10-15 minutes later in another quadrant. The drug treatment was further repeated at days 1, 2 and 3 post-infection to emulate the standard 4-day test used in anti-malarial drug discovery. Starting at day 5, blood was collected, thin blood smears were prepared, and parasitemia was determined (400 erythrocytes counted, expressed as percentage parasitized erythrocytes). Error bars show standard deviations on the mean; and
# FIGS. 9A and 9B show the results of two independent experiments on the effect of cysteamine and artesunate combinations on the survival of Plasmodium berghei ANKA-infected mice. Infection and drug administration were performed as described above for FIGS. 8A and 8B. Animals were monitored for the appearance and severity of cerebral symptoms (CM phase, shown as rectangle in graph), and moribund animals were euthanized, and time of death was recorded.
# Intravenous infection with Plasmodium berghei ANKA is an accepted mouse model of cerebral malaria (CM) (Hunt, N. H. et al. 2006, Int. J. Parasitol. 36: 569-582). The infection causes the following pathology. First, there is appearance of blood parasitemia, starting at days 3 or 4, which can go up to 10% by day 7-8. Starting at day 5-6, there is emergence of cerebral symptoms caused by permeability of the blood brain barrier, concomitant to trapping of parasitized red cells in the microvasculature and acute pathological host inflammatory response in situ. This cerebral phase quickly progresses from tremors, to paralysis, to coma, and is uniformly lethal in mice by days 8-10. In this model, progress of infection and possibly drug effects may be monitored by a) appearance and intensity of blood parasitemia (between days 5-8), b) appearance of cerebral symptoms, and c) lethality.
# Plasmodium chabaudi [2] = assay: 4-day test, P. chabaudi (10^7 pRBC i.v.) in pantetheinase-deficient A/J mice, blood parasitemia days 4 and 5; format: in vivo; details: for effect of addition of Cys on inhibition of parasitemia versus additive effect of the two compounds: Cys 170 mg/kg added to ART (0.2 or 0.5 mg/kg) or DHA (0.15 or 0.3 mg/kg); for Inhibition of parasitemia Day 4 / Inhibition of parasitemia Day 5: days 0-3; for symptoms of disease (ruffled fur, lethargy): mice receiving both Cys and ART/DHA, compared to PBS or only one compound; for inhibition of parasitemia compared to PBS-treated controls: ART 0.2 mg/kg alone
# Description: (§1) A/J and C57BL/6 (B6) mice were purchased from the Jackson Laboratories (Bar Harbor, Me.) and were housed at McGill University according to the guidelines of the Canadian Council on Animal Care. An LDH virus-free isolate of P. chabaudi AS was maintained by weekly passage in A/J mice. Mice were infected intravenously into the tail vein (i.v.) with 10^6 or 10^7 pRBC suspended in pyrogen-free saline. Following infection, the percentage of pRBC was determined daily on thin blood smears stained with Dif-Quik™ (Dade Behring, Newark, Del.), as described (Fortin A, et al. (2001) Proc Natl Acad Sci USA 98: 10793-10798).
# (§2) Cysteamine hydrochloride (Sigma, Burlington ON) was prepared in PBS. Chloroquine hydrochloride, artesunate and dihydroartemisinin were provided by Dafra Pharmaceuticals; chloroquine was prepared in PBS, artesunate and DHA were prepared in 5% sodium bicarbonate and diluted in water to appropriate concentrations. All solutions were prepared fresh daily, filter sterilized and injections were performed intra-peritoneally (i.p) or subcutaneously (s.c.) for 4 days or according to treatment regimen. Mice were weighed prior to treatment to determine appropriate doses and injection volumes ranged from 100-400 μL per mouse. In the case of animals treated with two drugs, artemisinin derivatives were administered first (due to the short half life of cysteamine), followed by cysteamine 5-10 minutes later on alternate sides. Untreated control animals were injected with PBS alone.
# (§3) Groups with normally distributed data points were compared using parametric unpaired t-tests, while groups with non-Gaussian distributions were compared using non-parametric Mann-Whitney tests. Survival differences were analyzed using the Log-Rank test. […] Standard error of percent inhibition was calculated from individual mice compared to the mean parasitemia level of the control group.
# (§4) The effect of Cys on the potency and efficacy of the anti-malarial artemisinin derivatives was tested. […] Synergy (Tallarida R J (2001) J Pharmacol Exp Ther 298: 865-872) is defined as a total anti-malarial activity (reduction in blood parasitemia compared to untreated controls in a standard 4-day test) of the two compounds administered together being greater than the sum of the independent activities of the two compounds given alone. We tested combinations of Cys and either artesunate (ART) or dihydroartemisinin (DHA), the bioactive form of artemisinin. Pantetheinase-deficient mice were infected with P. chabaudi (10^7 pRBC, i.v.) and treated with Cys (170 mg/kg) and/or sub-optimal doses of ART (0.2 or 0.5 mg/kg) (FIG. 3A) or DHA (0.15 or 0.3 mg/kg) (FIG. 3B) from day 0-3 and parasitemia was monitored on days 4 and 5. […] Potentiation of the anti-malarial activity of ART (0.5 mg/kg) by Cys was also clearly evident in these C57BL/6 mice at both days 4 and 5 post-infection, with combined treatment causing a 65-71% reduction in parasitemia compared to PBS controls, greater than either compound tested alone (13-29%) (TABLE 1).
# It was subsequently examined whether Cys potentiation of ART was dose dependent. Initially, Cys doses of 60, 100, 140 and 180 mg/kg were tested with a sub-optimal ART dose of 0.2 mg/kg. The drugs were administered from day 0-3 post infection, parasitemia was counted at day 4 and day 5 and the percent inhibition was calculated compared to PBS-treated controls (FIG. 4A). At 0.2 mg/kg, ART alone inhibits parasitemia by ˜20% (day 4) and 40% (day 5) while inhibition by Cys alone was partially dose dependent (varying between 10% and 25%). […] It was also assessed whether Cys could potentiate low doses of artesunate which, given alone, have no significant effect on parasitemia. In this experiment, Cys (170 mg/kg) was administered in combination, or not, with increasing doses of ART (0.05, 0.1, 0.2, 0.4 mg/kg) in the same 4-day experimental protocol.
# Plasmodium chabaudi [3] = assay: Progression of P. chabaudi infection (10^6 pRBC i.v.) in pantetheinase-sufficient B6 mice; format: in vivo
# Description: as §1, §2
# To investigate whether the effects on parasite burden over the course of infection would also be observed with a pantetheinase-sufficient mouse strain, a similar experiment was performed using female B6 mice. Groups of mice were infected with 10^6 P. chabaudi pRBC i.v. and treated with PBS, 1 mg/kg or 30 mg/kg of Art, or 1 mg/kg or 30 mg/kg of Art plus 60 mg/kg of Cys for 4 days. […] As in A/J mice, the effect of Cys addition to 1 mg/kg of Art has a clear effect on early parasite replication at day 6 (FIG. 6B). […] B6 mice were able to completely clear parasite burdens and survive the infection, even in the control PBS-treated group.
# Plasmodium chabaudi [4] = assay: Progression, resolution and survival of lethal P. chabaudi infection (10^6 pRBC i.v.) in A/J mice; format: in vivo
# Description: as §1, §2
# It was investigated if low dose Cys could potentiate standard doses of ART that show therapeutic activity in vivo and concurrently determined possible long-term effects on patent parasitemia, resolution of infection and survival in a lethal infection model. In this protocol, mice were infected with 10^6 pRBC P. chabaudi (i.v.) and treated with Cys (60 mg/kg) and/or ART (0.5, 1, 2, 5 and 10 mg/kg) for 4 days (days 0-3), while blood parasitemia and survival were followed for 22 days. Control animals treated with either PBS or Cys alone (60 mg/kg) developed high parasite burdens, which peaked at day 6, and all mice succumbed to the infection by day 7 (FIGS. 5A and 5C). […] Likewise, although all mice treated with 0.5 mg/kg ART succumbed to the infection early (day 8), mice additionally receiving Cys survived until day 9; moreover, addition of Cys to 1.0 mg/kg ART completely rescued animals from lethality of infection, with 100% survival in this group (FIGS. 5B, 5C).
# Plasmodium chabaudi [5] = assay: 4-day test, P. chabaudi (10^7 pRBC i.v.) in pantetheinase-sufficient C57BL/6 mice, blood parasitemia days 4 and 5; format: in vivo; details: for Inhibition of parasitemia Day 4 / Inhibition of parasitemia Day 5: days 0-3
# Description: as §1, §2, §3, §4
# [6] = A/J mice, DHA 0.15 mg/kg + cysteamine 170 mg/kg i.p.
# [7] = A/J mice, DHA 0.3 mg/kg + cysteamine 170 mg/kg i.p.
# [8] = artesunate 0.5 mg/kg + cysteamine 170 mg/kg i.p.
# [9] = A/J mice, artesunate 0.2 mg/kg + cysteamine 170 mg/kg i.p.
# [10] = A/J mice, artesunate 0.2 mg/kg alone
# [11] = A/J mice, artesunate 0.5 mg/kg + cysteamine 170 mg/kg i.p.
# [12] = A/J mice, artesunate 0.5 mg/kg alone
compound,measurement,setting,value
"NCCS.O=C(O)C(O)C(O)C(=O)O (centres unmarked) [Cys bitartrate, cysteamine bitartrate]",AUCT0-Tlast,[1],3613 min
C[C@@H]1CCC2[C@@H](C)C(=O)O[C@@H]3O[C@]4(C)CCC1C23OO4 (some centres unmarked) [Artemisinin],rise and absolute levels of parasitemia (days 6-8) versus Artemisinin alone,"Plasmodium berghei ANKA; Artemisinin 5 or 10 mg/kg + Cysteamine i.p., days 0-3",delay in the rise of parasitemia
same,prolongation of survival over Artemisinin alone,Plasmodium berghei ANKA; cysteamine added to Artemisinin,1 to 2 days
same,effect of adding cysteamine compared with doubling the dose of Artemisinin,"Plasmodium berghei ANKA; two independent experiments (FIG. 8A, 8B)",comparable (FIG. 8A) or superior (FIG. 8B)
"C[C@@H]1CCC2[C@@H](C)[C@H](O)O[C@@H]3O[C@]4(C)CCC1C23OO4 (some centres unmarked) [DHA, dihydroartemisinin]",effect of addition of Cys on inhibition of parasitemia versus additive effect of the two compounds,Plasmodium chabaudi [2]; A/J mice,synergistic effect
same,Inhibition of parasitemia Day 4,Plasmodium chabaudi [2]; [6],56* % PBS control
same,Inhibition of parasitemia Day 5,Plasmodium chabaudi [2]; [6],46* % PBS control
same,Inhibition of parasitemia Day 4,"Plasmodium chabaudi [2]; A/J mice, DHA 0.15 mg/kg alone",22 % PBS control
same,Inhibition of parasitemia Day 5,"Plasmodium chabaudi [2]; A/J mice, DHA 0.15 mg/kg alone",13 % PBS control
same,Inhibition of parasitemia Day 4,Plasmodium chabaudi [2]; [7],80 % PBS control
same,Inhibition of parasitemia Day 5,Plasmodium chabaudi [2]; [7],71* % PBS control
same,Inhibition of parasitemia Day 4,"Plasmodium chabaudi [2]; A/J mice, DHA 0.3 mg/kg alone",50 % PBS control
same,Inhibition of parasitemia Day 5,"Plasmodium chabaudi [2]; A/J mice, DHA 0.3 mg/kg alone",40 % PBS control
same,"symptoms of disease (ruffled fur, lethargy)",Plasmodium chabaudi [2],fewer symptoms of disease
"NCCS [Cys bitartrate, cysteamine bitartrate]",Cmax,[1]; read-out: peak plasma concentration (Cmax),39 µM
"C[C@H]1[C@H](OC(=O)CCC(=O)O)O[C@@H]2O[C@@]3(C)CC[C@H]4[C@H](C)CC[C@@H]1[C@@]24OO3 [Artesunate, artesunate]","outward symptoms of disease (lethargy, ruffled fur)",Plasmodium chabaudi [3]; 30 mg/kg Art plus Cys 60 mg/kg,did not display any outward symptoms of disease
same,parasite levels,Plasmodium chabaudi [3]; 30 mg/kg Art plus Cys 60 mg/kg,under 12 % pRBC
same,parasite levels and peak compared to Art administered alone,"Plasmodium chabaudi [3]; Art 1 or 30 mg/kg + Cys 60 mg/kg, 4 days",reduction in parasite levels and a delay in the peak
same,day until which mice survived,Plasmodium chabaudi [4]; ART 0.5 mg/kg + Cys 60 mg/kg,9 days
same,day at which all mice succumbed to the infection,Plasmodium chabaudi [4]; ART 0.5 mg/kg alone,8 days
same,survival,Plasmodium chabaudi [4]; ART 1.0 mg/kg + Cys 60 mg/kg,100%
same,effect on infection (onset and peak of parasitemia),"Plasmodium chabaudi [4]; ART alone 0.5-10 mg/kg, dose-dependent",delay in the onset of parasitemia and a reduction of peak parasitemia
same,further reduction in parasitemia at day 6,Plasmodium chabaudi [4]; Cys 60 mg/kg added to 0.5 mg/kg or 1 mg/kg ART,60-70%
same,peak levels of parasitemia relative to the corresponding dose of ART alone,Plasmodium chabaudi [4]; Cys 60 mg/kg added to all ART doses tested,reduction of peak levels of parasitemia
same,reduction in parasitemia compared to PBS controls,"Plasmodium chabaudi [5]; ART 0.5 mg/kg combined with Cys 170 mg/kg, days 4 and 5",65-71%
same,Inhibition of parasitemia Day 4,Plasmodium chabaudi [5]; [8],71* % PBS control
same,Inhibition of parasitemia Day 5,Plasmodium chabaudi [5]; [8],65* % PBS control
same,Inhibition of parasitemia Day 4,Plasmodium chabaudi [5]; artesunate 0.5 mg/kg alone,29 % PBS control
same,Inhibition of parasitemia Day 5,Plasmodium chabaudi [5]; artesunate 0.5 mg/kg alone,21 % PBS control
same,inhibition of parasitemia compared to PBS-treated controls,"Plasmodium chabaudi [2]; A/J mice, day 4 (FIG. 4A)",~20%
same,inhibition of parasitemia compared to PBS-treated controls,"Plasmodium chabaudi [2]; A/J mice, day 5 (FIG. 4A)",40%
same,inhibition of parasitemia replication,"Plasmodium chabaudi [2]; A/J mice, ART 0.1 and 0.2 mg/kg combined with Cys 170 mg/kg (FIG. 4C)",60-75%
same,inhibition of parasitemia replication,"Plasmodium chabaudi [2]; A/J mice, ART 0.1 and 0.2 mg/kg used alone (FIG. 4C)",< 10%
same,effect of addition of Cys on inhibition of parasitemia versus additive effect of the two compounds,Plasmodium chabaudi [2]; A/J mice,synergistic effect
same,potentiation of low-dose artesunate by Cys,"Plasmodium chabaudi [2]; A/J mice, Cys 170 mg/kg with ART 0.05, 0.1, 0.2, 0.4 mg/kg (FIG. 4C)",≥ 3 fold
same,Inhibition of parasitemia Day 4,Plasmodium chabaudi [2]; [9],65* % PBS control
same,Inhibition of parasitemia Day 5,Plasmodium chabaudi [2]; [9],56* % PBS control
same,Inhibition of parasitemia Day 4,Plasmodium chabaudi [2]; [10],30 % PBS control
same,Inhibition of parasitemia Day 5,Plasmodium chabaudi [2]; [10],20 % PBS control
same,Inhibition of parasitemia Day 4,Plasmodium chabaudi [2]; [11],93 % PBS control
same,Inhibition of parasitemia Day 5,Plasmodium chabaudi [2]; [11],80* % PBS control
same,Inhibition of parasitemia Day 4,Plasmodium chabaudi [2]; [12],65 % PBS control
same,Inhibition of parasitemia Day 5,Plasmodium chabaudi [2]; [12],43 % PBS control
same,"symptoms of disease (ruffled fur, lethargy)",Plasmodium chabaudi [2],fewer symptoms of disease
